Laboratory results from PubChem BioAssay AID2060903 (Molecular Pharmacology Branch, DTP, NCI, 2025).

Test system: 377384-186-R-J1-PDC complex spheroid viability
Experiment: Anticancer human tumor 377384-186-R-J1-PDC patient-derived pancreatic carcinoma cell line growth inhibition [RAS]
Conditions: for IC50: curve of first compound; for viability, T/C: stronger effect = lower value
Method in brief: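 Multi-cell-type spheroids: tumor cells plus HUVEC endothelial cells and mesenchymal stem cells. RAS-pathway inhibitors were combined with targeted agents, each dosed in half-log steps down from clinical Cmax, or from 10 microM when Cmax was unknown.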

[1] = second compound 0.00316 µM, first compound 0.0316 µM
[2] = second compound 0.00316 µM, first compound 0.1 µM
[3] = second compound 0.00316 µM, first compound 0.316 µM
[4] = second compound 0.00316 µM, first compound 1 µM
[5] = second compound 0.00316 µM, first compound 3.16 µM
[6] = second compound 0.00316 µM, first compound 10 µM
[7] = second compound 0.01 µM, first compound 0.0316 µM
[8] = second compound 0.01 µM, first compound 0.1 µM
[9] = second compound 0.01 µM, first compound 0.316 µM
[10] = second compound 0.01 µM, first compound 1 µM
[11] = second compound 0.01 µM, first compound 3.16 µM
[12] = second compound 0.01 µM, first compound 10 µM
[13] = second compound 0.0316 µM, first compound 0.0316 µM
[14] = second compound 0.0316 µM, first compound 0.1 µM
[15] = second compound 0.0316 µM, first compound 0.316 µM
[16] = second compound 0.0316 µM, first compound 1 µM
[17] = second compound 0.0316 µM, first compound 3.16 µM
[18] = second compound 0.0316 µM, first compound 10 µM
[19] = second compound 0.1 µM, first compound 0.0316 µM
[20] = second compound 0.1 µM, first compound 0.1 µM
[21] = second compound 0.1 µM, first compound 0.316 µM
[22] = second compound 0.1 µM, first compound 1 µM
[23] = second compound 0.1 µM, first compound 3.16 µM
[24] = second compound 0.1 µM, first compound 10 µM
[25] = second compound 0.316 µM, first compound 0.0316 µM
[26] = second compound 0.316 µM, first compound 0.1 µM
[27] = second compound 0.316 µM, first compound 0.316 µM
[28] = second compound 0.316 µM, first compound 1 µM
[29] = second compound 0.316 µM, first compound 3.16 µM
[30] = second compound 0.316 µM, first compound 10 µM
[31] = second compound 1 µM, first compound 0.0316 µM
[32] = second compound 1 µM, first compound 0.1 µM
[33] = second compound 1 µM, first compound 0.316 µM
[34] = second compound 1 µM, first compound 1 µM
[35] = second compound 1 µM, first compound 3.16 µM
[36] = second compound 1 µM, first compound 10 µM
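Further: spheroids exposed to compounds for seven days before readout.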

Question: CC1(O)CCCC1n1c(=O)c(C(F)F)cc2cnc(NC3CCN(S(C)(=O)=O)CC3)nc21 (stereo unspecified) + C=CC(=O)N1CCN(c2nc(OCC3CCCN3C)nc3c(F)c(-c4nc(N)cc(C)c4C(F)(F)F)c(Cl)cc23)C(C)C1 was tested. Which IC50 (second compound 0.00316 µM) did it give?
Answer: 0.0988 µM

Question: What about the IC50 (second compound 0.01 µM) of the same compound?
Answer: 0.0866 µM

Question: And the IC50 (second compound 0.0316 µM)?
Answer: 0.0954 µM

Question: And the IC50 (second compound 0.1 µM)?
Answer: 0.0771 µM

Question: What about the IC50 (second compound 0.316 µM) of the same compound?
Answer: 0.0769 µM

Question: What about the IC50 (second compound 1 µM) of the same compound?
Answer: 0.0675 µM

Question: And the viability, T/C [1]?
Answer: 81.1%

Question: What about the viability, T/C [2] of the same compound?
Answer: 49.7%

Question: And the viability, T/C [3]?
Answer: 17%

Question: And the viability, T/C [4]?
Answer: 24.2%

Question: What about the viability, T/C [5] of the same compound?
Answer: 33.9%

Question: What about the viability, T/C [6] of the same compound?
Answer: 4.64%

Question: And the viability, T/C [7]?
Answer: 89.5%

Question: What about the viability, T/C [8] of the same compound?
Answer: 45.1%

Question: What about the viability, T/C [9] of the same compound?
Answer: 21.4%

Question: And the viability, T/C [10]?
Answer: 20.8%

Question: What about the viability, T/C [11] of the same compound?
Answer: 28.8%

Question: And the viability, T/C [12]?
Answer: 4.18%

Question: And the viability, T/C [13]?
Answer: 73.4%

Question: What about the viability, T/C [14] of the same compound?
Answer: 49%

Question: And the viability, T/C [15]?
Answer: 20.9%

Question: And the viability, T/C [16]?
Answer: 20.7%

Question: And the viability, T/C [17]?
Answer: 29.1%

Question: What about the viability, T/C [18] of the same compound?
Answer: 5.27%

Question: And the viability, T/C [19]?
Answer: 79.3%

Question: What about the viability, T/C [20] of the same compound?
Answer: 42.1%

Question: And the viability, T/C [21]?
Answer: 20.4%

Question: What about the viability, T/C [22] of the same compound?
Answer: 24.4%

Question: What about the viability, T/C [23] of the same compound?
Answer: 29.3%

Question: And the viability, T/C [24]?
Answer: 4.69%

Question: And the viability, T/C [25]?
Answer: 74.3%

Question: And the viability, T/C [26]?
Answer: 42.8%

Question: And the viability, T/C [27]?
Answer: 17.7%

Question: And the viability, T/C [28]?
Answer: 21.5%

Question: What about the viability, T/C [29] of the same compound?
Answer: 33%

Question: And the viability, T/C [30]?
Answer: 5.33%

Question: What about the viability, T/C [31] of the same compound?
Answer: 69.4%

Question: What about the viability, T/C [32] of the same compound?
Answer: 39.9%

Question: What about the viability, T/C [33] of the same compound?
Answer: 19.7%

Question: What about the viability, T/C [34] of the same compound?
Answer: 22.5%

Question: What about the viability, T/C [35] of the same compound?
Answer: 32.5%

Question: What about the viability, T/C [36] of the same compound?
Answer: 6.56%

Question: Which IC50 (second compound 0.00316 µM) does the source give for CCN1CCN(Cc2ccc(Nc3ncc(F)c(-c4cc(F)c5nc(C)n(C(C)C)c5c4)n3)nc2)CC1 + C=CC(=O)N1CCN(c2nc(OCC3CCCN3C)nc3c(F)c(-c4nc(N)cc(C)c4C(F)(F)F)c(Cl)cc23)C(C)C1 here?
Answer: 0.21 µM

Question: What about the IC50 (second compound 0.01 µM) of the same compound?
Answer: 0.181 µM

Question: What about the IC50 (second compound 0.0316 µM) of the same compound?
Answer: 0.152 µM

Question: What about the IC50 (second compound 0.1 µM) of the same compound?
Answer: 0.21 µM

Question: And the IC50 (second compound 0.316 µM)?
Answer: 0.223 µM

Question: And the IC50 (second compound 1 µM)?
Answer: 0.306 µM

Question: And the viability, T/C (second compound 0.00316 µM, first compound 0.00316 µM)?
Answer: 87.5%

Question: And the viability, T/C (second compound 0.00316 µM, first compound 0.01 µM)?
Answer: 77.2%

Question: What about the viability, T/C [1] of the same compound?
Answer: 68.7%

Question: And the viability, T/C [2]?
Answer: 56.6%

Question: What about the viability, T/C [3] of the same compound?
Answer: 45.4%

Question: And the viability, T/C [4]?
Answer: 40.4%

Question: And the viability, T/C (second compound 0.01 µM, first compound 0.00316 µM)?
Answer: 91.4%

Question: And the viability, T/C (second compound 0.01 µM, first compound 0.01 µM)?
Answer: 79.8%

Question: What about the viability, T/C [7] of the same compound?
Answer: 73.3%

Question: What about the viability, T/C [8] of the same compound?
Answer: 52.1%

Question: What about the viability, T/C [9] of the same compound?
Answer: 46.8%

Question: What about the viability, T/C [10] of the same compound?
Answer: 40.2%

Question: What about the viability, T/C (second compound 0.0316 µM, first compound 0.00316 µM) of the same compound?
Answer: 89.4%

Question: And the viability, T/C (second compound 0.0316 µM, first compound 0.01 µM)?
Answer: 81.8%

Question: What about the viability, T/C [13] of the same compound?
Answer: 73.6%

Question: What about the viability, T/C [14] of the same compound?
Answer: 53.6%

Question: What about the viability, T/C [15] of the same compound?
Answer: 42.5%

Question: And the viability, T/C [16]?
Answer: 36.6%

Question: What about the viability, T/C (second compound 0.1 µM, first compound 0.00316 µM) of the same compound?
Answer: 82.1%

Question: What about the viability, T/C (second compound 0.1 µM, first compound 0.01 µM) of the same compound?
Answer: 78%

Question: And the viability, T/C [19]?
Answer: 70.7%

Question: What about the viability, T/C [20] of the same compound?
Answer: 59%

Question: And the viability, T/C [21]?
Answer: 44.6%

Question: What about the viability, T/C [22] of the same compound?
Answer: 38.7%

Question: And the viability, T/C (second compound 0.316 µM, first compound 0.00316 µM)?
Answer: 85.6%

Question: And the viability, T/C (second compound 0.316 µM, first compound 0.01 µM)?
Answer: 79.2%

Question: And the viability, T/C [25]?
Answer: 77%

Question: And the viability, T/C [26]?
Answer: 58.9%

Question: What about the viability, T/C [27] of the same compound?
Answer: 46.3%

Question: What about the viability, T/C [28] of the same compound?
Answer: 39.8%

Question: And the viability, T/C (second compound 1 µM, first compound 0.00316 µM)?
Answer: 95.1%

Question: What about the viability, T/C (second compound 1 µM, first compound 0.01 µM) of the same compound?
Answer: 75.4%

Question: And the viability, T/C [31]?
Answer: 73.6%

Question: And the viability, T/C [32]?
Answer: 57.5%

Question: What about the viability, T/C [33] of the same compound?
Answer: 46.1%

Question: What about the viability, T/C [34] of the same compound?
Answer: 45.9%

Question: Which results are given for C[C@@H](NC(=O)c1ncnc(N)c1Cl)c1ncc(C(=O)Nc2cc(C(F)(F)F)c(Cl)cn2)s1 + C=CC(=O)N1CCN(c2nc(OCC3CCCN3C)nc3c(F)c(-c4nc(N)cc(C)c4C(F)(F)F)c(Cl)cc23)C(C)C1?
Answer: IC50 (second compound 0.00316 µM): > 10 µM; IC50 (second compound 0.01 µM): > 10 µM; IC50 (second compound 0.0316 µM): > 10 µM; IC50 (second compound 0.1 µM): > 10 µM; IC50 (second compound 0.316 µM): > 10 µM; IC50 (second compound 1 µM): > 10 µM; viability, T/C [1]: 90%; viability, T/C [2]: 85.2%; viability, T/C [3]: 83.8%; viability, T/C [4]: 108%; viability, T/C [5]: 120%; viability, T/C [6]: 122%; viability, T/C [7]: 98.5%; viability, T/C [8]: 86.3%; viability, T/C [9]: 102%; viability, T/C [10]: 118%; viability, T/C [11]: 122%; viability, T/C [12]: 131%; viability, T/C [13]: 98.4%; viability, T/C [14]: 87.8%; viability, T/C [15]: 101%; viability, T/C [16]: 118%; viability, T/C [17]: 116%; viability, T/C [18]: 130%; viability, T/C [19]: 84%; viability, T/C [20]: 103%; viability, T/C [21]: 92.3%; viability, T/C [22]: 115%; viability, T/C [23]: 120%; viability, T/C [24]: 124%; viability, T/C [25]: 98.3%; viability, T/C [26]: 87.1%; viability, T/C [27]: 119%; viability, T/C [28]: 115%; viability, T/C [29]: 143%; viability, T/C [30]: 134%; viability, T/C [31]: 93.9%; viability, T/C [32]: 109%; viability, T/C [33]: 110%; viability, T/C [34]: 115%; viability, T/C [35]: 122%; viability, T/C [36]: 118%
